Assays:
[1] = tested on: human peripheral blood monocytes; assay: IL-10 production in human peripheral blood monocytes; assay type: cell-based; settings: after 48 h
[2] = tested on: LPS induced lung injury in mice; assay: LPS-induced ALI model; assay type: in vivo, C57BL/6 mice
Excerpt: Male C57BL/6 mice (Jackson Laboratories,) 12-15 weeks old, 25 - 28 gms, housed up to 5 per cage were used.
The lungs were sectioned for histopathological assessment after H/E staining while the BAL fluid was used to detect total cell counts (neutrophils and macrophages) and measure protein (that exudes by leakage).

[3] = tested on: hyperoxia induced BPD in mouse pups; assay: Hyperoxia-exposed BPD mouse model (newborn pups); assay type: in vivo
Excerpt: Neonatal mice and humans undergo similar stages of lung development but differ with respect to the duration of each stage and its temporal relationship to gestational age. The lungs of the mouse born at term are in the saccular stage and are surfactant sufficient; this can be considered somewhat akin to a human preterm neonate in the same stage of lung development that has been exposed to a full complement of antenatal steroids (which is known to enhance surfactant production). In terms of mimicking the human condition, the most successful hyperoxia models are those that limit exposure to hyperoxia to the saccular stage of pulmonary development. The mouse BPD model involves exposing newborn mice (postnatal day 1 or PN1) to 100% oxygen till PN4 followed by recovery in room air (RA) for another 10 days.
After the recovery period, their lungs were harvested and processed for quantitative PCR, western blotting, histopathology and ELISA.
After the recovery period, their lungs were harvested and processed for quantitative PCR, western blotting and histopathology and ELISA.
BPD is characterized by large simplified alveoli, inflammation, increased cell death, decreased cell proliferation, dysmorphic capillary configuration, and variable interstitial cellularity and/or fibroproliferation. […] This is determined by measuring the alveolar chord length, septal thickness and radial alveolar count (RAC). In BPD, the alveolar area increases which is characterized by increase in the diameter of the alveolar sacs, the septa become thickened (thus interfering in gaseous exchange) and the RAC, a parameter used to assess the complexity of terminal respiratory unit by pulmonologists, decreases as a result of arrested lung development.

[4] = biological target: T1, TLR9 (Homo sapiens, UniProt Q9NR96); assay: TLR9 antagonism: IFN-α ELISA in hPBMC with TLR9 ligand ODN2216; assay type: cell-based; settings: in combination with ODN2216, hPBMC, 48h
T1 construct: endogenous in cells; host or cells: hPBMC (human peripheral blood monocytes)
T1 sequence (Q9NR96 26-1032): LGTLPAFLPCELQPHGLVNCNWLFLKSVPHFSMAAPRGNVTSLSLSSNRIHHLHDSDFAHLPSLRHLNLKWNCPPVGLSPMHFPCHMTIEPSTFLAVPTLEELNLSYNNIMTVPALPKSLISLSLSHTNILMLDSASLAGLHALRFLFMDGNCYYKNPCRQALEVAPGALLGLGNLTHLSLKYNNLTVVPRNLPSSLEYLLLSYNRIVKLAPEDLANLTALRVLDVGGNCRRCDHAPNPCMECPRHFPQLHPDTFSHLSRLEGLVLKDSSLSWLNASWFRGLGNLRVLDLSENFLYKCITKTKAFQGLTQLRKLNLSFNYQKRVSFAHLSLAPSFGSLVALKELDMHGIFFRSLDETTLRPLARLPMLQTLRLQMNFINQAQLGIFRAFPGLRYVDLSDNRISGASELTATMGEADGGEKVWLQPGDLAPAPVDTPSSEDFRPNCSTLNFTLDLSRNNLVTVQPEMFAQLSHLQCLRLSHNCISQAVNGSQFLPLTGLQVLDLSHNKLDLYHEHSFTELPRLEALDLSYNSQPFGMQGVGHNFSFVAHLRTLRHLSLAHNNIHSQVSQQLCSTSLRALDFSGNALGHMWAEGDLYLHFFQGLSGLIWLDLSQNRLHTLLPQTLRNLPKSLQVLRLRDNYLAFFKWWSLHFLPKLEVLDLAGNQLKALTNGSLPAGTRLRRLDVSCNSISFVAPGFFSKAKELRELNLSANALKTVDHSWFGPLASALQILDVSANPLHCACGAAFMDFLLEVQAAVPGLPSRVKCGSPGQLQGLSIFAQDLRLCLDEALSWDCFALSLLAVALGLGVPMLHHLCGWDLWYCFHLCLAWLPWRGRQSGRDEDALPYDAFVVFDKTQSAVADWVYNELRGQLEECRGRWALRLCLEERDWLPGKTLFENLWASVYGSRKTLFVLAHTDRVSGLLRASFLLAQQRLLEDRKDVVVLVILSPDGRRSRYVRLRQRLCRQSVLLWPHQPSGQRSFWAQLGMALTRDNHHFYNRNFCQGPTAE
Experimental: Compound 8 antagonizes the TLR9 activities and downregulates the production of IFN-α in combination with TLR9 ligand ODN2216 in hPBMC after 48h of treatment as detected by ELISA (FIG. 11).

CC(=O)N[C@H]1[C@H](Oc2ccc([N+](=O)[O-])cc2)O[C@H](CO)[C@@H](O)[C@@H]1O [Compound 8, p-Nitrophenyl 2-acetamido-2-deoxy-β-D-glucopyranoside]
IL-10 production ([1]; 0.1-1.0 µM): increase | IL-10 production ([1]; 10-100 µM): decrease | protection against LPS induced lung injury ([2]; IP 10mg/kg at 4h and 12h post LPS, sacrifice after 24 h): significant protection | LPS-induced lung inflammation ([2]; IP injection): ameliorated | IFN-Y ([3]; 10mg/kg, ELISA (FIG. 26)): decreases | IL-1β ([3]; 10mg/kg, ELISA (FIG. 26)): decreases | IL-6 ([3]; 10mg/kg, ELISA (FIG. 26)): decreases | IL-17 ([3]; 10mg/kg, ELISA (FIG. 26)): decreases | MCP-1 ([3]; 10mg/kg, ELISA (FIG. 26)): decreases | MIP-2 ([3]; 10mg/kg, ELISA (FIG. 26)): decreases | TNF-α ([3]; 10mg/kg, ELISA (FIG. 26)): decreases | anti-inflammatory cytokine IL-10 ([3]; 10mg/kg, ELISA (FIG. 26H)): increase | hyperoxia induced BPD ([3]; IP and IV, saline solution, 5mg/kg or 10 mg/kg on PN2 and PN4 (FIG. 24)): prevent | chord length ([3]; IP injection (FIG. 25)): improvement | radial alveolar count ([3]; IP injection (FIG. 25)): improvement | septal thickness ([3]; IP injection (FIG. 25)): improvement | Inflammatory cytokines in lung tissue and serum ([3]; after injections): decreased | TLR4 inhibition in vivo ([3]; neonatal pups with BPD): inhibit | lung architecture ([3]; saline (IV) and nanosuspension (IN) formulation): restored | production of IFN-α [4]: downregulates
